In patent US20100285087A1, “SINGLE PHENOTHIAZINE ENANTIOMERS AS AGENTS FOR THE PREVENTION OF BONE LOSS” (The University Of Texas, priority 2003, published 2010):
Read-outs that look alike come from different tables or passages of the source. Blank lines part the entries; values can stand above or below the molecule they belong to.

Key:
[1] = system: osteoclasts; test: CalciFluor assay (OsteoAssay): calcium released by osteoclast-mediated resorptive activity; assay type: cell-based
Excerpt: A CalciFluor assay is used to measure the calcium that is released as a result of osteoclast-mediated resorptive activity. The first run of this assay looked at three new inventive compounds as well as establishing the data on the internal controls, (+/−)-promethazine and Alendronate (bis-phosphonate). The preliminary data on standards and inventive analogs is provided in Table 3, some general SAR (structure-activity relationships) trends are apparent.
The assay is optimized and dose-response data is generated on the Alendronate and Promethazine controls.

[2] = target: T1, H1 receptor (Homo sapiens, UniProt P35367); test: Histamine-stimulated IL-6 production in HUVEC cells (RT-PCR); assay type: cell-based; conditions: for Anti-histamine activity (IL-6 production assay), in words: 10^−5 M; for Histamine-stimulated IL-6 production reduced to fraction of that observed with histamine stimulation: ethopropazine concentration 10^−4 M
T1 construct: endogenous in cells; host or cells: HUVEC
Experimental: In the present studies, HUVEC cells were plated and grown to confluence in 6-well plates. […] The total RNA was isolated using Tri-reagent and subjected to reverse transcription polymerase chain reaction (RT-PCR™) analysis of IL-6 production using semi-quantitative analysis against HPRT expression (control gene).

[3] = system: osteoclasts; conditions: peak of resorption (4 days), n = 8; cited from earlier work
[4] = system: osteoclasts; test: Osteoclast resorption assay on mammoth tusk slices; assay type: cell-based
Experimental: During this time, osteoclasts mature and degrade bone matrix. At the end of the incubation period, cells are removed, the specimen examined by SEM and the absorption area/slice is quantitated versus control (untreated) slices.

[5] = Cytotoxicity testing of promethazine enantiomers; assay type: cell-based
[6] = system: ovariectomized rats (OVX); conditions: OVX + PROM rats, cited from earlier work
[7] = post-menopausal women, 50 mg/day promethazine associated with estrogens; cited from earlier work
[8] = first run, preliminary data, read-out: OsteoAssay IC50

T1 sequence (P35367 whole entry): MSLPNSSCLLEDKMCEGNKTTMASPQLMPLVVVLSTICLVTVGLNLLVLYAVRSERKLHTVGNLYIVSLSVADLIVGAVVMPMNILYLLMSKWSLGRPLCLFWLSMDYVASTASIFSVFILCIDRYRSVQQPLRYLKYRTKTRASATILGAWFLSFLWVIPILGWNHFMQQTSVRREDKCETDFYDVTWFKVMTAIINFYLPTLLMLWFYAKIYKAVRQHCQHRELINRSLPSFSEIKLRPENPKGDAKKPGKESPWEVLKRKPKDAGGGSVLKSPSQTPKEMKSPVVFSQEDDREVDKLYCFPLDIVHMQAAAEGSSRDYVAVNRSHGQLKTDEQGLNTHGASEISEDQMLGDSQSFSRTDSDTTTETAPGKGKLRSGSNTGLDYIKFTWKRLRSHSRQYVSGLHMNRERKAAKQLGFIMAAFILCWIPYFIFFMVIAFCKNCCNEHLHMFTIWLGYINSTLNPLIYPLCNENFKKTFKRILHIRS

- IC50 ([1]; optimized assay, dose response, FIG. 13, read-out: IC50, calcium release by osteoclast-mediated resorption): ~10 µM
SMILES: NCCCC(O)(P(=O)(O)O)P(=O)(O)O [Alendronate, alendronate]

SMILES: CCN(CC)C(C)CN1c2ccccc2Sc2ccccc21.Cl (single isomer, unassigned) [ethopropazine (+) enantiomer]
- Anti-histamine activity (IL-6 production assay), in words [2]: so effective that resolution of the more active enantiomer could not be determined
- Histamine-stimulated IL-6 production reduced to fraction of that observed with histamine stimulation [2]: approximately two fifths

SMILES: CN/C(=N/CCSCc1nc[nH]c1C)NC#N [Cimetidine, cimetidine]
- Active Osteoclasts (on-bone cells) [3]: 6.2 ± 0.8
- Inactive Osteoclasts (off-bone cells) [3]: 3.1 ± 0.7
- OBIT (OBI, mean interface of the active cells with the bone surface) [3]: 24.7 ± .9
- RS [3]: 14.4 ± 2.0
- Total Osteoclasts [3]: 9.4 ± 1.4

- IC50 [1, 8]: < 1 µM
SMILES: C[C@H](CN1c2ccccc2Sc2ccccc21)N(C)C [(+)-PMZ, (R)-N,N-dimethyl-1-(10H-phenothiazin-10-yl)propan-2-amine]
- Concentration needed for 90% inhibition of bone resorption compared with the racemate [4]: two orders of magnitude lower
- Efficacy for osteoclast inhibition compared with the racemate and the (−) enantiomer [4]: threefold higher
- inhibition at 0.1 µM ([4]; Osteoclast, 336 h, 10^−7 M, 14 days, read-out: Inhibition of bone resorption): 90%
- Cytotoxicity compared to the racemic mixture [5]: did not have any significant increase in cytotoxicity

- IC50 [1, 8]: < 1 µM
SMILES: COc1ccc2c(c1)N(C[C@@H](C)N(C)C)c1ccccc1S2 [(R)-l-(2-methoxy-10H-phenothiazin-10-yl)-N,N-dimethylpropan-2-amine]

SMILES: C[C@@H](CN1c2ccccc2Sc2ccccc21)N(C)C [promethazine (−) enantiomer, (S)-N,N-dimethyl-1-(10H-phenothiazin-10-yl)propan-2-amine]
- Cytotoxicity compared to the racemic mixture [5]: the same was also true

SMILES: CC(CN(C)C)CN1c2ccccc2Sc2ccccc21 (racemic) [trimeprazine racemate, trimeprazine]
- Anti-histamine activity (IL-6 production assay), in words [2]: so effective that resolution of the more active enantiomer could not be determined

SMILES: COc1ccc(CN(CCN(C)C)c2ccccn2)cc1 [Mepyramine, mepyramine]
- Active Osteoclasts (on-bone cells) [3]: 9.6 ± 0.7
- Inactive Osteoclasts (off-bone cells) [3]: 5.7 ± 0.8
- OBIT (OBI, mean interface of the active cells with the bone surface) [3]: 18.4 ± 0.8
- RS [3]: 17.6 ± 1.3
- Total Osteoclasts [3]: 15.3 ± 1.5

SMILES: CCN(CC)C(C)CN1c2ccccc2Sc2ccccc21.Cl (single isomer, unassigned) [ethopropazine (−) enantiomer]
- Effectiveness relative to the (+) enantiomer (IL-6 reduction) ([2]; ethopropazine): four times
- Effectiveness relative to the racemate (IL-6 reduction) ([2]; ethopropazine): approximately twice
- Histamine-stimulated IL-6 production reduced to fraction of that observed with histamine stimulation [2]: one tenth

SMILES: CC(CN(C)C)CN1c2ccccc2Sc2ccccc21 (single isomer, unassigned) [trimeprazine (+) enantiomer]
- Anti-histamine activity (IL-6 production assay), in words [2]: so effective that resolution of the more active enantiomer could not be determined

SMILES: CC(CN1c2ccccc2Sc2ccccc21)N(C)C (racemic) [Promethazine racemate, promethazine]
- Vertebra mg ([6]; 5th lumbar vertebra): 253 ± 24 mg
- Vertebra mm ([6]; 5th lumbar vertebra): 6.3 ± 0.3 mm
- Cn-BV-TV (femur cancellous bone volume) [6]: 12.5 ± 5.6%
- F-BMC (femur bone mineral content) [6]: 336 ± 30 mg
- F-BMC/BW [6]: 1.06 ± 0.06 mg/g
- F-BMD (femur bone mineral density) [6]: 125 ± 14 mg/cm^2
- Femur mg [6]: 716 ± 38 mg
- Femur mm [6]: 34.5 ± 0.7 mm
- Tb-N (trabecular number) [6]: 2.1 ± 0.7 mm^−1
- Tb-Sp (trabecular separation) [6]: 477 ± 215 μm
- Tb-Th (trabecular thickness) [6]: 57.5 ± 7.3 μm
- V-BMC (5th lumbar vertebral bone mineral content) [6]: 100 ± 10 mg
- V-BMD (5th lumbar vertebral bone mineral density) [6]: 108 ± 6 mg/cm^2
- Z score F-BMC [6]: −1.7 ± 0.9
- Annual gain in spinal bone mass [7]: 3%

SMILES: CCN(CC)C(C)CN1c2ccccc2Sc2ccccc21 (racemic) [Ethopropazine racemate, ethopropazine]
- Anti-histamine activity (IL-6 production assay), in words [2]: so effective that resolution of the more active enantiomer could not be determined
- Histamine-stimulated IL-6 production reduced to fraction of that observed with histamine stimulation [2]: approximately one fifth

- IC50 [1, 8]: > 10 µM
SMILES: C[C@H](CN1c2ccccc2Sc2ccc(C(F)(F)F)cc21)N(C)C [(R)-N,N-dimethyl-1-(2-(trifluoromethyl)-10H-phenothiazin-10-yl)propan-2-amine]

- IC50 [1, 8]: > 10 µM
SMILES: C[C@H](CN1c2ccccc2Sc2ccc(Cl)cc21)N(C)C [(R)-l-(2-chloro-10H-phenothiazin-10-yl)-N,N-dimethylpropan-2-amine]
